Assay results: patent US20220117958A1, “COMPOSITIONS AND METHODS FOR INHIBITING ACSS2” (THE TRUSTEES OF THE UNIVERSITY OF PENNSYLVANIA, priority 2018, published 2022)
In brackets after ≈: the same amount, converted by molar mass. Several values for one entry are separate records, joined by “and”; a condition that tells them apart may be missing. Equal values may be shown once. Read-outs that look alike come from different tables or passages of the source. Marks after values point to notes of the source that are not given here.

Columns and labels:
[1] = Turbidity-based aqueous solubility; assay type: physicochemical; details: aqueous solution (composition not given), kinetic from dmso stock, read-out: highest soluble concentration
From the text: (§1) Table 20 provides results of in vitro and in vivo pharmacokinetics performed for each of the represented compounds.

[2] = Protein binding via Rapid Equilibrium Dialysis - plasma; assay type: in vitro ADME; details: Rat (SD) plasma, 2 μM
From the text: as §1

[3] = Microsomal stability assay (half-life), human; assay type: in vitro ADME; details: Human microsomes, read-out: Microsomal stability T1/2
From the text: as §1

[4] = Microsomal stability assay (half-life), mouse; assay type: in vitro ADME; details: Mouse (CD1) microsomes, read-out: Microsomal stability T1/2
From the text: as §1

[5] = Microsomal stability assay (half-life), rat; assay type: in vitro ADME; details: Rat (SD) microsomes, read-out: Microsomal stability T1/2
From the text: as §1

[6] = In vivo PK, oral gavage, plasma; parameters: species or system Rat (SD); details: PO 5 mg/kg; for Plasma concentration, mean: Rat (SD), BQL = below quantitation limit (1.00 ng/mL); for Plasma concentration, individual animal: Rat, BQL limit 1.00 ng/mL
From the text: as §1
(§2) Tables 4 and 5 depict the summary of rat plasma sample concentrations after administration of ADG I-204. FIG. 6 provides a summary of rat plasma and brain concentrations.

[7] = In vivo PK, IV dose, plasma; parameters: species or system Rat (SD); details: for Plasma concentration, mean / Plasma concentration, individual animal: IV 1 mg/kg, listed as ADG I-204, 1 mg/kg
From the text: as §1, §2

[8] = In vivo PK, IV dose, Terminal - brain (brain availability); parameters: species or system Rat (SD); details: for Brain concentration, mean / Brain concentration, individual animal: IV 1 mg/kg; for Brain concentration, individual animal: Rat
Experimental: Table 3 and FIG. 5 depict the brain availability of ADG I-204, ADG I-205, ADG I-206, and ADG I-207 after IV administration of 1 mg/kg dose.

[9] = tested on: H3K9ac; assay: Western blot, differentiated CAD cell lysates, H3K9ac levels; assay type: cell-based; details: differentiated CAD cells, DMSO = 100.00%
From the text: as §1

CCCCCNC(=O)Nc1ccc2nc(-c3cccs3)c(-c3cccs3)nc2c1 [ADG-204]
solubility [1]: 2 µM (≈ 0.845 µg/mL) | Protein binding, plasma: % Protein free [2]: 0.1994 % Protein free | half-life at 2 μM [3]: 1.16 h | half-life at 2 μM [4]: 5.02 h | half-life at 2 μM [5]: 3.92 h | Plasma concentration, mean ([6]; 0.25 hr): BQL | Plasma concentration, mean ([6]; 0.5 hr): BQL | Plasma concentration, mean ([6]; 1 hr): BQL | Plasma concentration, mean ([6]; 4 hr): BQL | Plasma concentration, mean ([6]; 8 hr): BQL | Plasma concentration, mean ([6]; 24 hr): BQL | Plasma concentration, individual animal ([6]; 0.250 hr): BQL | Plasma concentration, individual animal ([6]; 0.500 hr): BQL | Plasma concentration, individual animal ([6]; 1.00 hr): BQL | Plasma concentration, individual animal ([6]; 4.00 hr): BQL | Plasma concentration, individual animal ([6]; 8.00 hr): BQL | Plasma concentration, individual animal ([6]; 24.0 hr): BQL | Plasma concentration, mean ([7]; Rat (SD), 4 hr, terminal): 4 ng/mL | Plasma concentration, mean ([7]; Rat (SD), 8 hr, terminal): 4 ng/mL | Plasma concentration, mean ([7]; Rat (SD), 24 hr, terminal, BQL limit 1.00 ng/mL (ADG I-205: 2.00 ng/mL)): 2 ng/mL | Plasma concentration, individual animal ([7]; Rat, 0.0830 hr, terminal, third animal received only 70% of the test article): 2340 ng/mL and 1170*** ng/mL | Plasma concentration, individual animal ([7]; Rat, 0.500 hr, not terminal (animals 4, 5 and 6)): 4190** ng/mL and 357 ng/mL and 634 ng/mL | Plasma concentration, individual animal ([7]; Rat, 1.00 hr, terminal): 278 ng/mL and 103 ng/mL and 279 ng/mL | Plasma concentration, individual animal ([7]; Rat, 4.00 hr, terminal, BQL limit 1.00 ng/mL (ADG I-205: 2.00 ng/mL)): 4.35 ng/mL | Plasma concentration, individual animal ([7]; Rat, 8.00 hr, terminal, BQL limit 1.00 ng/mL (ADG I-205: 2.00 ng/mL)): 2.97 ng/mL and 5.93 ng/mL | Plasma concentration, individual animal ([7]; Rat, 24.0 hr, terminal, BQL limit 1.00 ng/mL (ADG I-205: 2.00 ng/mL)): 1.09 ng/mL and BQL | concentration at 0.083 h ([7]; SD, rat, plasma, iv, 1 mg/kg, Rat (SD), 0.083 hr, terminal, read-out: Plasma concentration, mean): 1910 ng/mL | concentration at 0.5 h ([7]; SD, rat, plasma, iv, 1 mg/kg, Rat (SD), 0.500 hr, not a terminal time point (animals 4, 5 and 6)): 1730 ng/mL | concentration at 1 h ([7]; SD, rat, plasma, iv, 1 mg/kg, Rat (SD), 1 hr, terminal, read-out: Plasma concentration, mean): 220 ng/mL | concentration at 4 h ([7]; SD, rat, plasma, iv, 1 mg/kg, Rat (SD), 4 hr, terminal, read-out: Plasma concentration, mean): 4.49 ng/mL | concentration at 8 h ([7]; SD, rat, plasma, iv, 1 mg/kg, Rat (SD), 8 hr, terminal, read-out: Plasma concentration, mean): 4.27 ng/mL | concentration at 24 h ([7]; SD, rat, plasma, iv, 1 mg/kg, Rat (SD), 24 hr, terminal, BQL limit 1.00 ng/mL (ADG I-205: 2.00 ng/mL), read-out: Plasma concentration, mean): 1.52 ng/mL | concentration at 0.083 h ([7]; SD, rat, plasma, iv, 1 mg/kg, Rat, 0.0830 hr, terminal, third animal received only 70% of the test article, read-out: Plasma concentration, individual animal): 2220 ng/mL | concentration at 4 h ([7]; SD, rat, plasma, iv, 1 mg/kg, Rat, 4.00 hr, terminal, BQL limit 1.00 ng/mL (ADG I-205: 2.00 ng/mL), read-out: Plasma concentration, individual animal): 8.63 ng/mL | concentration at 8 h ([7]; SD, rat, plasma, iv, 1 mg/kg, Rat, 8.00 hr, terminal, BQL limit 1.00 ng/mL (ADG I-205: 2.00 ng/mL), read-out: Plasma concentration, individual animal): 3.92 ng/mL | concentration at 24 h ([7]; SD, rat, plasma, iv, 1 mg/kg, Rat, 24.0 hr, terminal, BQL limit 1.00 ng/mL (ADG I-205: 2.00 ng/mL), read-out: Plasma concentration, individual animal): 1.95 ng/mL | Brain concentration, mean ([8]; Rat (SD), 4 hr, BQL limit 10.0 ng/g (204, 206), 20.0 ng/g (205, 207)): BQL | Brain concentration, mean ([8]; Rat (SD), 8 hr, BQL limit 10.0 ng/g (204, 206), 20.0 ng/g (205, 207)): BQL | Brain concentration, mean ([8]; Rat (SD), 24 hr, BQL limit 10.0 ng/g (204, 206), 20.0 ng/g (205, 207)): BQL | Brain concentration, individual animal ([8]; 0.0830 hr, third animal received only 70% of the test article, listed as ADG I-204, 1 mg/kg): 637 ng/g and 583 ng/g and 242*** ng/g | Brain concentration, individual animal ([8]; 1.00 hr, listed as ADG I-204, 1 mg/kg): 119 ng/g and 60.3 ng/g and 149 ng/g | Brain concentration, individual animal ([8]; 4.00 hr, BQL limit 10.0 ng/g (204, 206), 20.0 ng/g (205, 207)): BQL | Brain concentration, individual animal ([8]; 8.00 hr, BQL limit 10.0 ng/g (204, 206), 20.0 ng/g (205, 207)): BQL | Brain concentration, individual animal ([8]; 24.0 hr, BQL limit 10.0 ng/g (204, 206), 20.0 ng/g (205, 207)): BQL | concentration at 0.083 h ([8]; SD, rat, brain, iv, 1 mg/kg, Rat (SD), 0.083 hr): 487 ng/g | concentration at 1 h ([8]; SD, rat, brain, iv, 1 mg/kg, Rat (SD), 1 hr, read-out: Brain concentration, mean): 109 ng/g | H3K9ac levels normalized to H3 and DMSO control ([9]; 1 uM): 22.30% | H3K9ac levels normalized to H3 and DMSO control ([9]; 5 uM): 13.48% | H3K9ac levels normalized to H3 and DMSO control ([9]; 10 uM): 8.32% | H3K9ac levels normalized to H3 and DMSO control ([9]; 20 uM): 17.03% | H3K9ac levels normalized to H3 and DMSO control ([9]; 50 uM): 9.64% | H3K9ac levels normalized to H3 and DMSO control ([9]; 100 uM): 24.00%
